Experimental data reported in ChEMBL document CHEMBL1157954, “Cycloleonuripeptides E and F, cyclic nonapeptides from Leonurus heterophyllus” (2006).
Residues, ends and D or L forms follow the SMILES beside them.

System: Aorta
Experiment: Vasorelaxation activity in Wistar rat thoracic aorta assessed as inhibition of norepinephrine-induced contraction at 10^-4 M
Format: functional
Parameters: scale not given: the % may be the effect or the level left

SMILES	Activity [%]
CC[C@H](C)[C@@H]1NC(=O)[C@@H]2CCCN2C(=O)[C@H](C)NC(=O)[C@@H]2CCCN2C(=O)[C@H]([C@@H](C)O)NC(=O)[C@H](Cc2ccccc2)NC(=O)[C@H](C)NC(=O)[C@H](C)NC(=O)[C@H](C(C)C)NC1=O [CYCLOLEONURIPEPTIDE E] (cyclo(AAFTPAPIV))	32
CC(C)C[C@@H]1NC(=O)[C@@H]2CCCN2C(=O)[C@H](Cc2ccc(O)cc2)NC(=O)CNC(=O)[C@@H]2CCCN2C(=O)[C@@H]2CCCN2C(=O)[C@H](Cc2ccc(O)cc2)NC(=O)[C@H](Cc2ccccc2)NC(=O)[C@@H]2CCCN2C1=O [CYCLOLEONURIPEPTIDE F] (cyclo(FYPPGYPLP))	40
